This note sets out measurements from US20050282840A1, “Methods of modulating neurotrophin-mediated activity” (PainCeptor Pharma Corporation, priority 2004, published 2005).

Read-outs that look alike come from different tables or passages of the source.

Experiment [1] has as its system p75^NTR receptors (PC12 cells). The experiment in a line: Basic screening assay: binding of 125I-NGF to PC12 cells. As to conditions: test compound 50 μM, 0.5 nM 125I-NGF, PC12 cells, 2 h at 4° C., specific binding as percent of control. The method, then:
(§1) The compounds were screened for effects on binding of ^125I-BDNF or ^125I-NGF to PC12 cells (p75^NTR receptors), and those that inhibited binding were further tested to determine the EC50 for this inhibition.
(§2) PC12 cells were cultured and prepared for binding assays as described in Example 1.
Lyophilized Serotec mouse 2.5S NGF (Cedarlane Laboratories, Toronto, Canada, cat. # PMP 04Z) was reconstituted under sterile conditions to 1 mg/mL (38 μM) in sterile 0.2% acetic acid, and 100 μL or 50 μL aliquots were stored frozen at −80° C.
(§3) Lypophilized Peprotech human recombinant BDNF (Cedarlane Laboratories, Toronto, Canada, cat. # PE 450-02-10) was reconstituted under sterile conditions to 3.5 μM in sterile HKR/1%BSA, and either used immediately or stored in aliquots of 20 μl at −80° C. Immediately prior to use, a 15 nM (30×) solution of ^125I-BDNF or ^125I-NGF was prepared in HKR buffer, and was used at 0.5 nM final concentration.
(§4) Test Compounds were dissolved to 10 mM in DMSO, and those that were not initially soluble were warmed to 40-50° C. and vortexed. Those compounds that were still not in solution were reported as such. Compounds were then stored in this form at −20° C. until use. Immediately before experiments, 100 mM compounds were diluted to 10 mM in DMSO (1:10), followed by a further dilution to 1 mM (1:10) with distilled water, and a further dilution to 500 μM (1:1) with HKR.
(§5) Assays to determine maximum binding (Bmax), non-specific binding (NSB), and binding in the presence of each test compound (e.g., x, y) were performed at least in duplicate. In a total volume of 300 μL, 4×10^6 PC12 cells were incubated, rotating for 2 h at 4° C. with the following:
(§6) At the conclusion of the binding reaction, 100 μL aliquots of the reaction mixtures were carefully layered over 200 μL of a 10% glycerol solution in a 0.4 mL tube, and subjected to centrifugation in a microcentrifuge for 2 minutes at half maximum speed. The cell pellets containing the bound ^125I-BDNF or ^125I-NGF were then measured using a gamma counter. The mean values of the replicates were then calculated to determine the value for maximum binding (Bmax) and nonspecific binding (NSB), and binding in the presence of test compound at 50 μM (Bx). Specific binding (SB) was measured by subtracting the NSB from the Bmax. Specific binding in the presence of the test compound (SBx) was determined by subtracting the NSB from the Bx for each test compound; and each SBx was divided by SB and multiplied by 100 to give the specific binding in the presence of the compound as a percent of control specific binding.

The target of experiment [2] is T1, p75^NTR receptors (PC12 cells) (Rattus norvegicus, UniProt P07174).
T1 construct: endogenous in cells; host or cells: PC12 cells
T1 sequence (P07174 30-425): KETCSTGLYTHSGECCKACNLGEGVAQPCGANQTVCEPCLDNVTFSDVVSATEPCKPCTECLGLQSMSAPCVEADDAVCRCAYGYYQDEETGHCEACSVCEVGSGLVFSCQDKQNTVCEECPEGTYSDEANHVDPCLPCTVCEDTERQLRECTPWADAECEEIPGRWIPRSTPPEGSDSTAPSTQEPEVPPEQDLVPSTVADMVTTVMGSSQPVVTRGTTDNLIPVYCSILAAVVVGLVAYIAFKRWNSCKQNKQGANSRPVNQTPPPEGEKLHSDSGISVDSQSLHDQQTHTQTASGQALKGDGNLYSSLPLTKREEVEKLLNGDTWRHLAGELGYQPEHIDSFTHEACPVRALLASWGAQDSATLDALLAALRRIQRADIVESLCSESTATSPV
T1 sequence (P23560 129-247 partner): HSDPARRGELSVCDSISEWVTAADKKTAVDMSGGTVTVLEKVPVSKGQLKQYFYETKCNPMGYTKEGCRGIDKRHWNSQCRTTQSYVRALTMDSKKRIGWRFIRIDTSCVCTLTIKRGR
The experiment in a line: Basic screening assay: binding of 125I-BDNF to PC12 cells. The conditions noted are these: read-out: BDNF Activity % Maximal Binding. The protocol:
as §1, §2, §3, §4, §5
as §6, with “Bmax.” for “Bmax. Specific binding in the presence of the test compound (SBx) was determined by subtracting the NSB from the Bx for each test compound; and each SBx was divided by SB and multiplied by 100 to give the specific binding in the presence of the compound as a percent of control specific binding.”

Where [3] appears, read: Table 1, test compound 50 μM, 0.5 nM 125I-BDNF, PC12 cells, 2 h at 4° C., specific binding as percent of control.

With `O=C1NC(=S)N/C1=C/c1ccc(-c2ccc([N+](=O)[O-])cc2Cl)o1` [Compound 47, 5-[5-(2-Chloro-4-nitrophenyl)furan-2-ylmethylene]-2-thioxo-imidazolidin-4-one], the “NGF Activity % Maximal Binding” value in experiment [1] (Table 1) is “* (50 < *)”. Further, the activity at 50 µM in experiment [2] (setting [3]) was in the range of 30 to 40%.

Take `CC1=NN(c2ccc(F)cc2)C(=O)/C1=C\c1ccc(-c2ccc(C(=O)O)cc2)o1` [Compound 49, 4-{5-[1-(4-Fluorophenyl)-3-methyl-5-oxo-1,5-dihydro-pyrazol-4-ylidenemethyl]furan-2-yl}benzoic acid]: the “NGF Activity % Maximal Binding” value in experiment [1] (Table 1) is reported as “* (50 < *)”. Moreover, the activity at 50 µM in experiment [2] (setting [3]) was 30 to 40%.

With `COC(=O)CN1C(=O)S/C(=C\c2ccc(-c3ccc([N+](=O)[O-])cc3)o2)C1=O` [Compound 50, {5-[5-(4-Nitrophenyl)furan-2-ylmethylene]-2,4-dioxo-thiazolidin-3-yl}-acetic acid methyl ester], the “NGF Activity % Maximal Binding” value in experiment [1] (Table 1) is reported as “* (50 < *)”. Besides, the activity at 50 µM in experiment [2] (setting [3]) was 30 to 40%.

With `O=C1NC(=S)S/C1=C/c1ccc(-c2ccc(Cl)c([N+](=O)[O-])c2)o1` [Compound 51, 5-[5-(4-Chloro-3-nitrophenyl)furan-2-ylmethylene]-2-thioxo-thiazolidin-4-one], the “NGF Activity % Maximal Binding” value in experiment [1] (Table 1) is on record as “* (50 < *)”. Also, in experiment [2] (setting [3]), the activity at 50 µM was 30 to 40%.

In the case of `CCCC(C(=O)O)N1C(=O)C(=Cc2ccc(-c3ccc([N+](=O)[O-])cc3)o2)SC1=S` (centres unmarked) [Compound 52, 2-{5-[5-(4-Nitrophenyl)furan-2-ylmethylene]-4-oxo-2-thioxo-thiazolidin-3-yl}-pentanoic acid], in experiment [1] (Table 1), the “NGF Activity % Maximal Binding” value is given as “* (50 < *)”. For the same compound, the activity at 50 µM in experiment [2] (setting [3]) fell in the range of 30 to 40%.

Consider `Cc1cc([N+](=O)[O-])ccc1-c1ccc(/C=C2/C(=O)NC(=O)N(C)C2=O)o1` [Compound 53, 1-Methyl-5-[5-(2-methyl-4-nitrophenyl)furan-2-ylmethylene]-pyrimidine-2,4,6-trione], for which, in experiment [1] (Table 1), the “NGF Activity % Maximal Binding” value is recorded as “* (50 < *)”. Further, the activity at 50 µM in experiment [2] lay within 30 to 40%.

With `CCOC(=O)c1ccc(-c2ccc(/C=C3/NC(=O)N(c4ccccc4)C3=O)o2)cc1` [Compound 54, 4-[5-(2,5-Dioxo-1-phenyl-imidazolidin-4-ylidenemethyl)furan-2-yl]benzoic acid ethyl ester], the “NGF Activity % Maximal Binding” value in experiment [1] (Table 1) is reported as “* (50 < *)”. In addition, the activity at 50 µM in experiment [2] (setting [3]) fell in the range of 30 to 40%.

Consider `CCN1C(=O)/C(=C/c2ccc(-c3ccc([N+](=O)[O-])cc3)o2)NC1=S` [Compound 55, 3-Ethyl-5-[5-(4-nitrophenyl)furan-2-ylmethylene]-2-thioxo-imidazolidin-4-one], for which the “NGF Activity % Maximal Binding” value in experiment [1] (Table 1) is on record as “* (50 < *)”. In addition, the activity at 50 µM in experiment [2] (setting [3]) fell in the range of 30 to 40%.

With `COc1cc([N+](=O)[O-])ccc1-c1ccc(C=C2C(=O)ON=C2c2ccccc2)o1` [Compound 56, 4-[5-(2-Methoxy-4-nitrophenyl)furan-2-ylmethylene]-3-phenyl-4H-isoxazol-5-one], the “NGF Activity % Maximal Binding” value in experiment [1] (Table 1) is “* (50 < *)”. Besides, the activity at 50 µM in experiment [2] (setting [3]) was in the range of 40 to 50%.

As to `CCOC(=O)c1ccc(N2NC(=O)/C(=C/c3ccc(-c4cccc(C(=O)O)c4)o3)C2=O)cc1` [Compound 57, 3-{5-[3,5-Dioxo-1-phenyl-(4-ethyl ester)-pyrazolidin-4-ylidenemethyl]furan-2-yl}benzoic acid], in experiment [1] (Table 1), the “NGF Activity % Maximal Binding” value was “* (50 < *)”. For the same compound, in experiment [2] (setting [3]), the activity at 50 µM lay in the range of 40 to 50%.

Turning to `CCN1C(=O)S/C(=C/c2ccc(-c3ccc([N+](=O)[O-])cc3OC)o2)C1=O` [Compound 58, 3-Ethyl-5-[5-(2-methoxy-4-nitrophenyl)furan-2-ylmethylene]-thiazolidine-2,4-dione], the “NGF Activity % Maximal Binding” value in experiment [1] (Table 1) is given as “* (50 < *)”. The activity at 50 µM in experiment [2] (setting [3]) lay in the range of 40 to 50%.

With `O=C1C(=Cc2ccc(-c3ccc([N+](=O)[O-])cc3)o2)SC(=S)N1Cc1cccnc1` [Compound 59, 5-[5-(4-Nitrophenyl)furan-2-ylmethylene]-3-pyridin-3-ylmethyl-2-thioxo-thiazolidin-4-one], the “NGF Activity % Maximal Binding” value in experiment [1] (Table 1) is reported as “* (50 < *)”. Besides, the activity at 50 µM in experiment [2] (setting [3]) lay in the range of 40 to 50%.

Regarding `COc1cc([N+](=O)[O-])ccc1-c1ccc(/C=C2/SC(=S)N(C)C2=O)o1` [Compound 60, 5-[5-(2-Methoxy-4-nitrophenyl)furan-2-ylmethylene]-3-methyl-2-thioxo-thiazolidin-4-one], the “NGF Activity % Maximal Binding” value in experiment [1] (Table 1) is reported as “* (50 < *)”. The activity at 50 µM in experiment [2] (setting [3]) lay within 40 to 50%.

Consider `CCOC(=O)CN1C(=O)S/C(=C\c2ccc(-c3ccc([N+](=O)[O-])cc3C)o2)C1=O` [Compound 61, {5-[5-(2-Methyl-4-nitrophenyl)furan-2-ylmethylene]-2,4-dioxo-thiazolidin-3-yl}-acetic acid ethyl ester], for which the “NGF Activity % Maximal Binding” value in experiment [1] (Table 1) is given as “* (50 < *)”. For the same compound, the activity at 50 µM in experiment [2] (setting [3]) was in the range of 40 to 50%.

Take `CCCSC1=NC(=Cc2ccc(-c3ccc([N+](=O)[O-])cc3Cl)o2)C(=O)S1` [Compound 62, 4-[5-(2-Chloro-4-nitrophenyl)furan-2-ylmethylene]-2-propylsulfanyl-4H-thiazol-5-one]: the “NGF Activity % Maximal Binding” value in experiment [1] (Table 1) is on record as “* (50 < *)”. For the same compound, the activity at 50 µM in experiment [2] (setting [3]) lay in the range of 40 to 50%.

In the case of `CCOC(=O)c1ccc(-c2ccc(/C=C3/C(=O)NN(c4cccc(C)c4)C3=O)o2)cc1` [Compound 63, 4-[5-(3,5-Dioxo-1-m-tolyl-pyrazolidin-4-ylidenemethyl)furan-2-yl]benzoic acid ethyl ester], the “NGF Activity % Maximal Binding” value in experiment [1] (Table 1) is reported as “* (50 < *)”. The activity at 50 µM in experiment [2] (setting [3]) lay within 40 to 50%.

On to `COC(=O)C(C)N1C(=O)S/C(=C/c2ccc(-c3ccc(C)c([N+](=O)[O-])c3)o2)C1=O` (centres unmarked) [Compound 64, 2-{5-[5-(4-Methyl-3-nitrophenyl)furan-2-ylmethylene]-2,4-dioxo-thiazolidin-3-yl}-propionic acid methyl ester], for which the “NGF Activity % Maximal Binding” value in experiment [1] (Table 1) was “* (50 < *)”. In addition, the activity at 50 µM in experiment [2] (setting [3]) lay within 40 to 50%.

With `Cc1cc(C(=O)O)ccc1-c1ccc(/C=C2\C(=O)NC(=O)N(c3ccccc3F)C2=O)o1` [Compound 66, 4-{5-[1-(2-Fluorophenyl)-2,4,6-trioxo-tetrahydro-pyrimidin-5-ylidenemethyl]furan-2-yl}-3-methylbenzoic acid], the “NGF Activity % Maximal Binding” value in experiment [1] (Table 2) was “XXX (20 < XXX < 30)”. Besides, the activity at 50 µM in experiment [2] was in the range of 0 to 10%.

As to `COC(=O)CN1C(=O)S/C(=C/c2ccc(-c3ccc(C(=O)O)c(Cl)c3)o2)C1=O` [Compound 67, 2-Chloro-4-[5-(3-methoxycarbonylmethyl-2,4-dioxo-thiazolidin-5-ylidenemethyl)furan-2-yl]benzoic acid], the “NGF Activity % Maximal Binding” value in experiment [1] (Table 2) is “XX (30 < XX < 40)”. Also, in experiment [2] (Table 2, test compound 50 μM, 0.5 nM 125I-BDNF, PC12 cells, 2 h at 4° C., specific binding as percent of control), the activity at 50 µM lay in the range of 0 to 10%.
